Measured values: US4064345A, “Cephalosporins derivatives 7-cyclized α-amino-3-heterothio” (Bristol-Myers Company, priority 1976, dated 1977)
≈ marks a conversion by molar mass, not a printed value. Entries after “also recorded” stand apart in the source; their conditions may differ.

Legend:
[1] = Paper strip chromatography (hydrolysis to BL-S643); type: physicochemical; conditions: 0 and 1 hour at 37° C.; 0.2 mg./ml.
[2] = Paper chromatograms of rat urine after IM administration (antibiotically active metabolites); type: in vivo; conditions: urine 0-2 and 2-4 hours; for Antibiotically active metabolites in rat urine (spots on paper chromatogram): descending chromatography system No. 9
Protocol: Paper chromatograms were run on rat urine collected between 0 and 2 and between 2 and 4 hours following IM administration of BL-S1057, 1058 and 643, for the detection of antibiotically active metabolites using descending chromatography with system No. 9 (butyl acetaten-butanol:glacial acetic acid:H2 O = 80:15:40:24).

[3] = Liquid chromatography, % hydrolyzed in buffer; type: physicochemical; conditions: 1 mg./ml.
Protocol: f. Liquid chromatography = 100% hydrolyzed in pH 6.1 buffer within 1 hour at room temperature (concentration = 1 mg./ml.)
d. Liquid chromatography (1 mg./ml. in pH 6 buffer)

[4] = Bio-assay (using cefatrizine as the standard); type: cell-based
Excerpt: a. Bio-assay (using cefatrizine as the standard) = 759 mcg./mg.
a. Bio-assay (using cefatrizine as the standard) = 685 mcg./mg.

[5] = system: E. coli Juhl A15119; assay: Antibiotic spectrum in nutrient broth (MIC); type: cell-based; conditions: Escherichia coli, JUHLA15119, 10^-4 dilution, BL-S1057/BL-S1058 adjusted for 80%/59% content of BL-S643
Excerpt: (§1) Antibiotic Spectrum of BL-S643 Derivatives in Nutrient Broth
(§2) **Dilution of overnight broth
(§3) ^(1) Adjusted for 80% content of BL-S643.
(§4) ^(2) Adjusted for 59% content of BL-S643.
(§5) In other words, the numerical values are lowered, i.e. improved. This

[6] = system: K. pneumoniae A15130; assay: Antibiotic spectrum in nutrient broth (MIC); type: cell-based; conditions: Klebsiella pneumoniae, 10^-4 dilution, BL-S1057/BL-S1058 adjusted for 80%/59% content of BL-S643
Excerpt: as §1, §2, §3, §4, §5

[7] = system: Ent. cloacae A9659; assay: Antibiotic spectrum in nutrient broth (MIC); type: cell-based; conditions: Enterobacter cloacae, 10^-4 dilution, BL-S1057/BL-S1058 adjusted for 80%/59% content of BL-S643
Excerpt: as §1, §2, §3, §4, §5

[8] = system: Pr. morganii A15153; assay: Antibiotic spectrum in nutrient broth (MIC); type: cell-based; conditions: Morganella morganii, 10^-4 dilution, BL-S1057/BL-S1058 adjusted for 80%/59% content of BL-S643
Excerpt: as §1, §2, §3, §4, §5

[9] = system: Ser. marcescens A20019; assay: Antibiotic spectrum in nutrient broth (MIC); type: cell-based; conditions: Serratia marcescens, 10^-4 dilution, BL-S1057/BL-S1058 adjusted for 80%/59% content of BL-S643
Excerpt: as §1, §2, §3, §4, §5

[10] = system: K. pneumoniae A9977; assay: Antibiotic spectrum in nutrient broth (MIC); type: cell-based; conditions: Klebsiella pneumoniae, 10^-4 dilution, BL-S1057/BL-S1058 adjusted for 80%/59% content of BL-S643
Excerpt: as §1, §2, §3, §4, §5

[11] = system: Ps. aeruginosa A9843A; assay: Antibiotic spectrum in nutrient broth (MIC); type: cell-based; conditions: Pseudomonas aeruginosa
Excerpt: as §1, §2, §3, §4, §5

[12] = system: Ent. cloacae A9656; assay: Antibiotic spectrum in nutrient broth (MIC); type: cell-based; conditions: Enterobacter cloacae, 10^-4 dilution, BL-S1057/BL-S1058 adjusted for 80%/59% content of BL-S643
Excerpt: as §1, §2, §3, §4, §5

[13] = system: Pr. mirabilis A9900; assay: Antibiotic spectrum in nutrient broth (MIC); type: cell-based; conditions: Proteus mirabilis, 10^-4 dilution, BL-S1057/BL-S1058 adjusted for 80%/59% content of BL-S643
Excerpt: as §1, §2, §3, §4, §5

[14] = system: S. aureus BX1633 A9606; assay: Antibiotic spectrum in nutrient broth (MIC); type: cell-based; conditions: Staphylococcus aureus, BX1633A9606, nutrient broth, BL-S1057/BL-S1058 adjusted for 80%/59% content of BL-S643
Excerpt: as §1, §2, §3, §4, §5

[15] = system: S. aureus Meth-Res A15097; assay: Antibiotic spectrum in nutrient broth (MIC); type: cell-based; conditions: Staphylococcus aureus, 10^-3 dilution, BL-S1057/BL-S1058 adjusted for 80%/59% content of BL-S643
Excerpt: as §1, §2, §3, §4, §5

[16] = system: S. aureus Smith A9537; assay: Antibiotic spectrum in nutrient broth (MIC); type: cell-based; conditions: Staphylococcus aureus, 10^-4 dilution, BL-S1057/BL-S1058 adjusted for 80%/59% content of BL-S643
Excerpt: as §1, §2, §3, §4, §5

[17] = system: E. coli A9675; assay: Antibiotic spectrum in nutrient broth (MIC); type: cell-based; conditions: Escherichia coli, 10^-4 dilution, BL-S1057/BL-S1058 adjusted for 80%/59% content of BL-S643
Excerpt: as §1, §2, §3, §4, §5

[18] = system: Ent. cloacae A9657; assay: Antibiotic spectrum in nutrient broth (MIC); type: cell-based; conditions: Enterobacter cloacae, 10^-4 dilution, BL-S1057/BL-S1058 adjusted for 80%/59% content of BL-S643
Excerpt: as §1, §2, §3, §4, §5

[19] = system: Sal. enteritidis A9531; assay: Antibiotic spectrum in nutrient broth (MIC); type: cell-based; conditions: Salmonella enterica, 10^-4 dilution, BL-S1057/BL-S1058 adjusted for 80%/59% content of BL-S643
Excerpt: as §1, §2, §3, §4, §5

[20] = system: Str. pyogenes A9604; assay: Antibiotic spectrum in nutrient broth (MIC); type: cell-based; conditions: Streptococcus pyogenes, 10^-3 dilution of overnight broth culture, 45% AAB + serum + 50% broth, BL-S1057/BL-S1058 adjusted for 80%/59% content of BL-S643
Excerpt: as §1
(§6) *45% AAB + serum + 50% broth listed above.
as §2, §3, §4, §5

[21] = system: S. pneumoniae A9585; assay: Antibiotic spectrum in nutrient broth (MIC); type: cell-based; conditions: Streptococcus pneumoniae, 10^-3 dilution of overnight broth culture, 45% AAB + serum + 50% broth, BL-S1057/BL-S1058 adjusted for 80%/59% content of BL-S643
Excerpt: as §1, §6, §2, §3, §4, §5

[22] = Solubility in water; type: physicochemical
Protocol: d. Solubility = >400 mg./ml. in water

[23] = SMITHA9537, nutrient broth +50% serum
[24] = SMITHA9537, nutrient broth, no serum

Compound	Antibiotically active metabolites in rat urine (spots on paper chromatogram) [2]	MIC [5] [µg/mL]	MIC [6] [µg/mL]	MIC [7] [µg/mL]	MIC [8] [µg/mL]	MIC [9] [µg/mL]	MIC [10] [µg/mL]	MIC [11] [µg/mL]	MIC [12] [µg/mL]	MIC [13] [µg/mL]	MIC ([14]; 10^-2 dilution) [µg/mL]	MIC ([14]; 10^-3 dilution) [µg/mL]	MIC [15] [µg/mL]	MIC [16, 23] [µg/mL]	MIC [16, 24] [µg/mL]	MIC [17] [µg/mL]	MIC [18] [µg/mL]	MIC [19] [µg/mL]	MIC [20] [µg/mL]	MIC [21] [µg/mL]	also measured
Cc1nnc(SCC2=C(C(=O)O)N3C(=O)C(N4C(=O)[C@@H](c5ccc(O)cc5)NC4c4ccco4)C3SC2)s1 (some centres unmarked) [BL-S1057]	A single, identical spot	1 (≈ 1.75 µM)	4 (≈ 7 µM)	16 (≈ 28 µM)	16 (≈ 28 µM)	125 (≈ 219 µM)	0.5 (≈ 0.875 µM)	> 125	> 125	0.5 (≈ 0.875 µM)	4 (≈ 7 µM)	1 (≈ 1.75 µM)	2 (≈ 3.5 µM)	8 (≈ 14 µM)	0.5 (≈ 0.875 µM)	4 (≈ 7 µM)	0.5 (≈ 0.875 µM)	0.25 (≈ 0.437 µM)	0.008	0.016	Paper strip chromatography zones [1]: Primarily 1 zone at Rf of BL-S643; Hydrolysis to parent compound (BL-S643) [2]: complete hydrolysis; degraded at 1 h ([3]; within 1 hour, pH 6.1 buffer, room temperature): 100%; Bio-assay [4]: 759 µg/mg; solubility [22]: > 400 mg/mL
Cc1nnc(SCC2=C(C(=O)O)N3C(=O)C(NC(=O)[C@H](N)c4ccc(O)cc4)C3SC2)s1 (some centres unmarked) [BL-S643, reference compound]	A single, identical spot	1 (≈ 2.03 µM)	4 (≈ 8.1 µM)	32 (≈ 64.8 µM)	16 (≈ 32.4 µM)	125 (≈ 253 µM)	0.5 (≈ 1.01 µM)	> 125	> 125	0.5 (≈ 1.01 µM)	4 (≈ 8.1 µM)	1 (≈ 2.03 µM)	4 (≈ 8.1 µM)	8 (≈ 16.2 µM)	0.5 (≈ 1.01 µM)	4 (≈ 8.1 µM)	4 (≈ 8.1 µM)	0.25 (≈ 0.506 µM)	0.016	0.03	
Cc1nnc(SCC2=C(C(=O)O)N3C(=O)C(N4C(=O)[C@@H](c5ccc(O)cc5)NC4c4ccc(S(=O)(=O)O)o4)C3SC2)s1 (some centres unmarked) [BL-S1058]	A single, identical spot	1 (≈ 1.53 µM)	2 (≈ 3.07 µM)	16 (≈ 24.6 µM)	16 (≈ 24.6 µM)	125 (≈ 192 µM)	0.5 (≈ 0.767 µM)	> 125	> 125	0.5 (≈ 0.767 µM)	4 (≈ 6.14 µM)	0.5 (≈ 0.767 µM)	2 (≈ 3.07 µM)	8 (≈ 12.3 µM)	0.25 (≈ 0.384 µM)	2 (≈ 3.07 µM)	0.5 (≈ 0.767 µM)	0.13 (≈ 0.199 µM)	0.008	0.016	Paper strip chromatography zones [1]: Primarily 1 zone at Rf of BL-S643; also recorded: evidence of a second zone; Hydrolysis to parent compound (BL-S643) [2]: complete hydrolysis; % Hydrolyzed ([3]; 0 hours, pH 6 buffer): 25.4%; degraded at 1 h ([3]; 1 hour, pH 6 buffer): 46.5%; degraded at 2 h ([3]; 2 hours, pH 6 buffer): 59%; Bio-assay [4]: 685 µg/mg
